Measurements taken from patent US20180355359A1, “METHODS FOR DETERMINING RESISTANCE TO ANTICANCER THERAPY AND COMPOSITION USED THEREFOR” (SD GENOMICS CO., LTD., priority 2015, published 2018).

Tests used:
K562 = assay: Survival rate (CCK-8 assay) of CML cell line K562; type: cell-based; settings: imatinib 0.6 μM
Experimental: (§1) CML cell lines (K562 and CML-T1 cell line) and a normal lymphoblastoid cell line (LCL) were inoculated into a 96-well plate in which DMEM medium containing 10% FBS, 100 units/mL penicillin, and […] streptomycin at a concentration of 3×10^3 cells/well and cultured under the conditions of 37° C. and 5% CO2.
(§2) In particular, the siRNAs used had the nucleotide sequences of SEQ ID NOS: 5 and 176 to 178.

CML-T1 cell line = assay: Survival rate (CCK-8 assay) of CML cell line CML-T1; type: cell-based; settings: imatinib 0.6 μM
Experimental: as §1, §2

K562 cells = assay: Cell cycle analysis (PI staining, FACS) in K562 cells; type: cell-based; settings: vs negative control siRNA
Experimental: (§3) CML cell lines (K562 cells and LAMA-84 cells) were treated with the two kinds of siRNAs having the nucleotide sequences of SEQ ID NOS: 5 and 176 to 178 (negative control siRNA or IS3 siRNA) and the cells were immobilized. These cells were subjected to PI staining and applied to FACSVerse (BD Biosciences, Franklin Lakes, N.J., U.S.A.) so as to measure the percentage of the cells located in the G0/G1 phase (FIGS. 11A and 11B).

[1] = system: normal lymphoblastoid cell line (LCL); assay: Survival rate (CCK-8 assay) of normal lymphoblastoid cell line; type: cell-based
Experimental: as §1, §2

LAMA-84 cells = assay: Cell cycle analysis (PI staining, FACS) in LAMA-84 cells; type: cell-based; settings: vs negative control siRNA
Experimental: as §3

[2] = system: solid cancer cell lines (IMR-32, SNU-478, MG-63, Hs578T, U-87MG, SNU-886, MIA-PaCa-2, SK-MEL-2, RD, Hs 746T, J-82); assay: Survival rate (CCK-8 assay) of solid cancer cell lines; type: cell-based; settings: 100 pmol siRNA per 200,000 cells, up to 72 hours; vs siCTRL; all 11 solid cancer lines
Text: (§4) Specifically, the cancer cell lines of hematopoietic tissue or lymphatic tissue (e.g., LAMA84 (chronic myeloid leukemia in blast crisis), KG-1 (acute myeloid leukemia, FAB M2), HL-60 (acute myeloid leukemia, FAB M2), NB-4 (acute promyelocytic leukemia), MOLM13 (acute myeloid leukemia, FAB M5B), CCRF-CEM (T acute lymphoblastic leukemia), and U-937 (histiocytic lymphoma)); solid cancer cell lines (e.g., IMR-32 (neuroblastoma, KCLB, 10127), SNU-478 (ampulla of vater adenocarcinoma), MG-63 (osteosarcoma), Hs578T (breast invasive ductal carcinoma, KCLB, 30126), U-87MG (glioblastoma), SNU-886 (hepatocellular carcinoma), MIA-PaCa-2 (pancreatic ductal adenocarcinoma), SK-MEL-2 (malignant melanoma), RD (embryonal rhabdomyosarcoma), Hs 746T (gastric adenocarcinoma), and J-82 (bladder carcinoma)) were dispensed into a 96-well plate at a concentration of 3,000 to 5,000 cell lines/well and incubated in a wet incubator (37° C. and 5% CO2) having an environment similar to that of the human body and cultured for 3 days.
(§5) Each of the cultured cells was treated with the two kinds of siRNAs having the nucleotide sequences of SEQ ID NOS: 5 and 176 to 178 (negative control siRNA (siCTRL) or IS3 siRNA) at a concentration of 100 pmol based on 200,000 cells, cultured for up to 72 hours, and the survival rates of these cells were compared by the CCK-8 assay (FIGS. 12A to 12C).

[3] = system: K562 cell line which induced the T315I mutation; assay: Survival rate (CCK-8 assay) of cell line with induced T315I somatic mutation; type: cell-based
Experimental: A cell line in which a somatic mutation of T315I was induced was prepared using the Clontech Guide-it CRISPR/Cas9 System and inoculated into a 96-well plate in which DMEM medium containing 10% FBS, 100 units/mL penicillin, and 100 μg/mL streptomycin at a concentration of 3×10^3 cells/well and cultured under the conditions of 37° C. and 5% CO2.

phospho CrkL/CrkL ratio = assay: Phospho-CRKL analysis (Phospho-CrkL (Tyr207) colorimetric cell-based ELISA) in K562
Experimental: A ratio of phosphorylated CRKL and CRKL (phospho CrkL/CrkL ratio) of the treated cell line was calculated using the Phospho-CrkL (Tyr207) Colorimetric Cell-Based enzyme linked immunosorbent assay (ELISA) kit and the results were compared (FIG. 10).

[4] = system: cancer cell lines of hematopoietic tissue or lymphatic tissue (LAMA84, KG-1, HL-60, NB-4, MOLM13, CCRF-CEM, U-937); assay: Survival rate (CCK-8 assay) of cancer cell lines of hematopoietic or lymphatic tissue; type: cell-based; settings: 100 pmol siRNA per 200,000 cells, up to 72 hours; vs siCTRL; all 7 hematopoietic/lymphatic lines
Text: as §4, §5

Row | Molecule | survival rate of the cell line (K562) | survival rate of the cell line (CML-T1 cell line) | percentage of the cells located in the G0/G1 phase (K562 cells) | survival rate of the cell line [1] | percentage of the cells located in the G0/G1 phase (LAMA-84 cells) | survival rate of each cell line [2] | survival rate of the cell line ([3]; siRNA in combination with first generation anticancer agent (imatinib 10 nM)) | survival rate of the cell line ([3]; siRNA in combination with second generation anticancer agent (nilotinib or dasatinib 10 nM)) | survival rate of the cell line ([3]; siRNA used alone) | phospho CrkL/CrkL ratio (phospho CrkL/CrkL ratio; HMGCLL1 IS3 siRNA and imatinib in combination) | phospho CrkL/CrkL ratio (phospho CrkL/CrkL ratio; treated individually) | survival rate of each cell line [4]
1 | Cc1ccc(NC(=O)c2ccc(CN3CCN(C)CC3)cc2)cc1Nc1nccc(-c2cccnc2)n1 [imatinib, reference compound] | reduced | reduced |  |  |  |  |  |  |  |  |  | 
2 | HMGCLL1 IS3 siRNA: siRNA to HMGCLL1 isoform 3: sense GGUACCACAGGUUGCUGCU (SEQ ID NO: 178), antisense AGCAGCAACCUGUGGUACC (SEQ ID NO: 5) (listed as RNA, chemistry not given here) | reduced | reduced | increased | not affected | increased | significantly reduced | further significantly reduced | further significantly reduced | reduced | reduced to the lowest level | reduced to similar levels | significantly reduced
